Measurements reported in patent publication US7414048B2, “4,5-dihydro-isoxazole derivatives and their pharmaceutical use” (Janssen Pharmaceutica, N.V., priority 1998, dated 2008).

Tested on: T cell blast formation in human blood
Assay: In vitro inhibition of T cell blast formation in human blood (human whole blood blast formation, PHA stimulated, flow cytometry)
Format: cell-based
Settings: 72 hours, mean where multiple measurements
Description: Cells are collected after a 72 hours culture period at 37° C., supernatant is removed by centrifugation and red blood cells are lysed by a hypotonic buffer. The remaining white blood cells are collected in PBS containing propidium iodide. The blast formation is analyzed using a benchtop flow cytometer (Cytoron, Ortho) equipped with an argon-ion laser. […] When multiple measurements were performed, a mean value was calculated for the percentage inhibition of T cell blast formation.

[1] = Test Dose 1 × 10^−6 (unit not given)
[2] = Test Dose 3 × 10^−7 (unit not given)
[3] = Test Dose 1 × 10^−7 (unit not given)
[4] = Test Dose 1 × 10^−5 (unit not given)

SMILES | % Inhibition of T cell blast formation [1] | % Inhibition of T cell blast formation [2] | also measured
CCCCOC(c1ccccc1)c1ccc(NC(=O)C2CC(c3cccnc3)=NO2)cc1.Cl (centres unmarked) [Compound 417] | 42% | – | –
CC(C)OC(c1ccccc1)c1ccc(NC(=O)C2CC(c3cccnc3)=NO2)cc1.Cl (centres unmarked) [Compound 418] | 75% | – | –
CN(C)C(=O)c1ccc(CNC(=O)c2ccc(NC(=O)C3CC(c4cccnc4)=NO3)cc2)cc1 (centres unmarked) [Compound 426] | 82% | 65% | –
CNC(=O)c1ccc(CNC(=O)c2ccc(NC(=O)C3CC(c4cccnc4)=NO3)cc2)cc1 (centres unmarked) [Compound 427] | 80% | – | –
O=C(Nc1ccc(C(=NO)c2ccncc2)cc1)C1CC(c2cccnc2)=NO1 (centres unmarked) [Compound 428] | – | – | % Inhibition of T cell blast formation [3]: 57%
O=C(Nc1ccc(C(=NO)c2ccc3c(c2)OCO3)cc1)C1CC(c2cccnc2)=NO1 (centres unmarked) [Compound 429] | 86% | – | –
O=C(Nc1ccc(C(=NO)c2cccc(OC(F)(F)F)c2)cc1)C1CC(c2cccnc2)=NO1 (centres unmarked) [Compound 430] | – | 67% | –
O=C(Nc1ccc(C(=NO)c2c(F)cccc2F)cc1)C1CC(c2cccnc2)=NO1 (centres unmarked) [Compound 431] | – | 71% | –
O=C(Nc1ccc(C(=NO)c2cnc3ccccc3c2)cc1)C1CC(c2cccnc2)=NO1 (centres unmarked) [Compound 432] | 65% | – | –
COc1ccccc1C(=NO)c1ccc(NC(=O)C2CC(c3cccnc3)=NO2)cc1 (centres unmarked) [Compound 434] | – | – | % Inhibition of T cell blast formation [3]: 83%
O=C(Nc1ccc(C(=NO)c2ccc(F)cc2F)cc1)C1CC(c2cccnc2)=NO1 (centres unmarked) [Compound 435] | – | – | % Inhibition of T cell blast formation [3]: 81%
COc1cc(C(=NO)c2ccc(NC(=O)C3CC(c4cccnc4)=NO3)cc2)cc(OC)c1OC (centres unmarked) [Compound 436] | – | 78% | –
COc1ccc(C(=NO)c2ccc(NC(=O)C3CC(c4cccnc4)=NO3)cc2)cc1OC (centres unmarked) [Compound 437] | – | 75% | –
COc1ccc(C(=NO)c2ccc(NC(=O)C3CC(c4cccnc4)=NO3)cc2)c(OC)c1 (centres unmarked) [Compound 438] | – | – | % Inhibition of T cell blast formation [3]: 82%
O=C(Nc1ccc(C(=NO)c2ccccn2)cc1)C1CC(c2cccnc2)=NO1 (centres unmarked) [Compound 439] | 79% | – | –
COc1ccc(OC)c(C(=NO)c2ccc(NC(=O)C3CC(c4cccnc4)=NO3)cc2)c1 (centres unmarked) [Compound 440] | – | – | % Inhibition of T cell blast formation [3]: 77%
COC(C(N)=O)(c1ccccc1)c1ccc(NC(=O)C2CC(c3cccnc3)=NO2)cc1 (centres unmarked) [Compound 442] | 75% | – | –

SMILES | % Inhibition of T cell blast formation [1] | % Inhibition of T cell blast formation [2] | also measured
O=C(Cc1ccc(NC(=O)C2CC(c3cccnc3)=NO2)cc1)Nc1ccccc1 (centres unmarked) [Compound 451] | – | 80% | –
O=C(Nc1ccc(-c2noc(-c3ccccc3)n2)cc1)C1CC(c2cccnc2)=NO1 (centres unmarked) [Compound 452] | 79% | – | –
O=C(Nc1ccc(-c2nc(-c3ccccc3)no2)cc1)C1CC(c2cccnc2)=NO1 (centres unmarked) [Compound 453] | 61% | – | –
O=C(Nc1ccc(-c2nc(-c3ccccc3)cs2)cc1)C1CC(c2cccnc2)=NO1 (centres unmarked) [Compound 454] | – | 59% | –
CN1N=C(c2ccccc2)CC1c1ccc(NC(=O)C2CC(c3cccnc3)=NO2)cc1 (centres unmarked) [Compound 457] | – | 67% | –
CN1N=C(c2ccc(NC(=O)C3CC(c4cccnc4)=NO3)cc2)CC1c1ccccc1 (centres unmarked) [Compound 459] | 77% | – | –
O=C(Nc1ccc(-c2n[nH]c3cc(F)ccc23)cc1)C1CC(c2cccnc2)=NO1 (centres unmarked) [Compound 463] | – | 33% | –
O=C(Nc1ccc(-n2cnc3ccccc32)cc1)C1CC(c2cccnc2)=NO1 (centres unmarked) [Compound 464] | 85% | – | –
Cn1nc(-c2ccc(NC(=O)C3CC(c4cccnc4)=NO3)cc2)c2ccc(F)cc21 (centres unmarked) [Compound 465] | – | – | % Inhibition of T cell blast formation [4]: 83%
O=C(Nc1ccc(-c2noc3cc(F)ccc23)cc1)C1CC(c2cccnc2)=NO1 (centres unmarked) [Compound 466] | – | – | % Inhibition of T cell blast formation [4]: 82%
Cc1nc2ccccc2n1-c1ccc(NC(=O)C2CC(c3cccnc3)=NO2)cc1 (centres unmarked) [Compound 467] | 82% | – | –
O=C(c1ccc(NC(=O)C2CC(c3cccnc3)=NO2)cc1)c1cccs1 (centres unmarked) [Compound 490] | 58% | – | –
O.O=C(c1ccccc1)c1ccc(NC(=O)[C@@H]2CC(c3cccnc3)=NO2)cc1 [Compound 491, (S)-N-(4-benzoylphenyl)-4,5-dihydro-3-(3-pyridinyl)-5-isoxazolecarboxamide (1:1) monohydrate] | – | – | % Inhibition of T cell blast formation [3]: 70%
CC(C)=NOC(c1ccccc1)c1ccc(NC(=O)[C@@H]2CC(c3cccnc3)=NO2)cc1 (stereo partly drawn) [Compound 504, (5S)-4,5-dihydro-N-[4-[[[(1-methylethylidene)amino]oxo]phenylmethyl]phenyl]-3-(3-pyridinyl)-5-isoxazolecarboxamide] | – | 75% | –
CC(C)OC(=O)OC(c1ccccc1)c1ccc(NC(=O)[C@@H]2CC(c3cccnc3)=NO2)cc1 (some centres unmarked) [Compound 508, [5S(A)]-[4-[[[4,5-dihydro-3-(3-pyridinyl)-5-isoxazolyl]carbonyl]amino]phenyl]phenylmethyl 1-methylethyl carbonic acid (ester)] | – | 70% | –
CC(O)(c1ccccc1)c1ccc(NC(=O)C2CC(c3cccnc3)=NO2)cc1 (centres unmarked) [Compound 510, (B1)-4,5-dihydro-N-[4-(1-hydroxy-1-phenylethyl)phenyl]-3-(3-pyridinyl)-5-isoxazolecarboxamide] | 76% | – | –
COC(=O)OC(C#N)(c1ccccc1)c1ccc(NC(=O)C2CC(c3cccnc3)=NO2)cc1 (centres unmarked) [Compound 524] | 81% | – | –
